Results: patent publication US20260210939A1, “MODIFIED OLFACTORY RECEPTORS” (GIVAUDAN SA, priority 2022, published 2026)
pEC50: −log10 of the molar value. Each block holds one compound with its values, some of them ahead of it.

Tests used:
Assay type in all cases: cell-based
[1] = system: library of all human class I OR; assay: Screening of the library of all class I OR (n=77, C-terminal domain SEQ ID NO: 741) with carboxylic acids, luciferase induction; details: full library of class I OR
Experimental: All human class I OR and all key genetic variants of these OR were synthesized with a sequence coding for the identical C-terminal domain […] (SEQ ID NO: 741) in the vector pcDNA3.1(+) to generate a library of all class I OR with an improved C-terminal domain.
Parallel transfection experiments were conducted with all these plasmids (n=77, SEQ ID NO: 760, OR51F1 was excluded due to poor plasmid yield) and cells expressing the different OR were stimulated with one given ligand at a time. In total 10 different carboxylic acids ligands were tested on the full library of class I receptors.

OR10J5 = biological target: T1, OR10J5 (Homo sapiens, UniProt Q8NHC4); details: OR10J5 with SEQ ID NO: 86; relative to positive control 100 μM Mahonial
T1 construct: Improved functional expression of modified OR-genes containing the truncated, optimized C-terminus; expressed in transfected cells; host or cells: HEK293T stably expressing human RTP1S(V227I) and RTP2(L220R)
T1 sequence (Q8NHC4 with tags, fused parts or gaps): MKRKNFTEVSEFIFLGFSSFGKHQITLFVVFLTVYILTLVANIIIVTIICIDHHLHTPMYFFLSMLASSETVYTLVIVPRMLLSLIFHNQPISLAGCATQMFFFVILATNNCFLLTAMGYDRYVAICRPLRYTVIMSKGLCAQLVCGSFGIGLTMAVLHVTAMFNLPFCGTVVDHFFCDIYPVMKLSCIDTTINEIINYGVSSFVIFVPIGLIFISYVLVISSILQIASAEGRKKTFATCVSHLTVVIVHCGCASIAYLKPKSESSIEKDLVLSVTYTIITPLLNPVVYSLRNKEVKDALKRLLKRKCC
Experimental: Activation of OR10J5 with the C-terminal domain of SEQ ID NO: 86 by (S,E)-10-hydroxy-4,8-dimethyldec-4-enal or (R,E)-10-hydroxy-4,8-dimethyldec-4-enal was measured in a dose-response analysis.
Potency of the two tested OR10J5 ligands is expressed as the EC20% value, which is the concentration that leads to a 20% increase of the luciferase activity relative to the positive control (100 μM, Mahonial; (4E)-9-hydroxy-5,9-dimethyl-4-Decenal). […] Because of the difference in EC20%, a much lower concentration of the (S,E)-isomer is needed to activate the receptor compared to the concentration needed of the (R,E)-isomer. […] This example further illustrates the usefulness of the improved assay to determine the most odor-active isomers.

OR4S2 = biological target: T2, OR4S2 (Homo sapiens, UniProt Q8NH73, A290K); assay: cell-based
T2 construct: Improved functional expression of modified OR-genes containing the truncated, optimized C-terminus; expressed in transfected cells; host or cells: HEK293T stably expressing human RTP1S(V227I) and RTP2(L220R)
T2 sequence (Q8NH73 with tags, fused parts or gaps A290K): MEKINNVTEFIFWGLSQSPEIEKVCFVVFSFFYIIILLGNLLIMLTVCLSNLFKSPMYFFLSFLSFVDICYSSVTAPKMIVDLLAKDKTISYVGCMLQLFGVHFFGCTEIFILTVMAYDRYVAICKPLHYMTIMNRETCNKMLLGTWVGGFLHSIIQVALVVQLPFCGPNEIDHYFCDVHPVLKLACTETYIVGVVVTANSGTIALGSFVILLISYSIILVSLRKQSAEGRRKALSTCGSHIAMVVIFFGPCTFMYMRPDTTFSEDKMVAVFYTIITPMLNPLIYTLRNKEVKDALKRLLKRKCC

OR2AP1 = biological target: T3, OR2AP1 (Homo sapiens, UniProt Q8NGE2); assay: Dose-response test of single lactones on OR2AP1
T3 construct: expressed in transfected cells; transient transfection of pcDNA3.1(+) OR plasmid
T3 sequence (Q8NGE2 with tags, fused parts or gaps limits assumed): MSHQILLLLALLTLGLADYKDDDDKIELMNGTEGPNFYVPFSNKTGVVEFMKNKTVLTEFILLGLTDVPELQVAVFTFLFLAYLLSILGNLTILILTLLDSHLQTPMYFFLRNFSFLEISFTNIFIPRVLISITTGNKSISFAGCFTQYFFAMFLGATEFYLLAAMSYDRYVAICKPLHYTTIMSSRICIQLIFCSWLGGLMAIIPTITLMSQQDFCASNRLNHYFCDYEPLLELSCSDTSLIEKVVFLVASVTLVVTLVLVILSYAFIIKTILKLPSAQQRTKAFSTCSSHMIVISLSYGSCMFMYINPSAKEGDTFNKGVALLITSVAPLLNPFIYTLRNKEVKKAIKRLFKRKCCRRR
Experimental: (§1) In a subsequent de-convultion experiment, the single ingredients were tested in a dose-response test on all the identified OR. […] Thus, OR2AP1 and OR2J2 are particularly strongly activated by the long-chain dodecalactone gamma, while OR10A3 is very sensitive to several longer chain lactones. […] Among the five OR, OR10A3 is the most sensitive.

OR2J2 = biological target: T4, OR2J2 (Homo sapiens, UniProt O76002, A146V/A218T/A302I/G300K/H297E/H74Y); assay: Dose-response test of single lactones on OR2J2
T4 construct: expressed in transfected cells; transient transfection of pcDNA3.1(+) OR plasmid
T4 sequence (O76002 with tags, fused parts or gaps H74Y/A146V/A218T/H297E/G300K/A302I limits assumed): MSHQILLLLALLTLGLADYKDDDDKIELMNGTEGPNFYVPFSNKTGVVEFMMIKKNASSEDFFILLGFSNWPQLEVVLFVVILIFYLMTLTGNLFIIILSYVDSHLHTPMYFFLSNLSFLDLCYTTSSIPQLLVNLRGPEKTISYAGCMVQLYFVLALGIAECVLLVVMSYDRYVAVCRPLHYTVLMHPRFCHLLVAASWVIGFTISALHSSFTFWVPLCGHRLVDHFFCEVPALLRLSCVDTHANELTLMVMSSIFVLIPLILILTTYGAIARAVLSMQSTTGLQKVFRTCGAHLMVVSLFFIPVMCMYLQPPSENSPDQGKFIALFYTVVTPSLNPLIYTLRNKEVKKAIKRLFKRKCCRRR
Experimental: as §1

OR10J1(M51I, I92M) = biological target: T5, OR10J1(M51I, I92M) (Homo sapiens, UniProt P30954, I103M/M62I); assay: Dose-response test of single lactones on OR10J1(M51I, I92M)
T5 construct: expressed in transfected cells; transient transfection of pcDNA3.1(+) OR plasmid
T5 sequence (P30954 with tags, fused parts or gaps M62I/I103M): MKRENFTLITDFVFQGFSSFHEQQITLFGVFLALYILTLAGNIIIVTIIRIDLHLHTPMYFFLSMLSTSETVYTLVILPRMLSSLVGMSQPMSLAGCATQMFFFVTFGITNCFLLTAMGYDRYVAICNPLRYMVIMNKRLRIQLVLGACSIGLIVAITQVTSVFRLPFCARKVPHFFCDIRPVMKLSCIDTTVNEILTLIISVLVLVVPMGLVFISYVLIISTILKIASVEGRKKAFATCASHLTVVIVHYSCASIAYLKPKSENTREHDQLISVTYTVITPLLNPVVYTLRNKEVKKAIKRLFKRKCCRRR
Experimental: as §1

[2] = biological target: T6, OR10A6(A117V, V140G, L287P) (Homo sapiens, UniProt Q8NH74, A117V/L287P/V140G); assay: Dose-response test of single lactones on OR10A6(A117V, V140G, L287P)
T6 construct: expressed in transfected cells; transient transfection of pcDNA3.1(+) OR plasmid
T6 sequence (Q8NH74 with tags, fused parts or gaps A117V/V140G/L287P limits assumed): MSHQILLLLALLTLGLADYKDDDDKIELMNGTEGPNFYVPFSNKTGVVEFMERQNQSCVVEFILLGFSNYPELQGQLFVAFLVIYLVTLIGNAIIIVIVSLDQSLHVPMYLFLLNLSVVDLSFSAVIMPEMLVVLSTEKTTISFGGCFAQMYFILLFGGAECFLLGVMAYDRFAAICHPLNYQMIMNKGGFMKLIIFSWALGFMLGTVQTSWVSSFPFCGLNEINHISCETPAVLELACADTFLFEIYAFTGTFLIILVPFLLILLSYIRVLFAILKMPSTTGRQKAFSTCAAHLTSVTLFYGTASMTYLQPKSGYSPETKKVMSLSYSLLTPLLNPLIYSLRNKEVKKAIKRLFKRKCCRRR
Experimental: as §1

OR10A3 = biological target: T7, OR10A3 (Homo sapiens, UniProt P58181); assay: Dose-response test of single lactones on OR10A3 (luciferase)
T7 construct: Class II OR library members with modified C-terminal domains; expressed in transfected cells
T7 sequence (P58181 with tags, fused parts or gaps): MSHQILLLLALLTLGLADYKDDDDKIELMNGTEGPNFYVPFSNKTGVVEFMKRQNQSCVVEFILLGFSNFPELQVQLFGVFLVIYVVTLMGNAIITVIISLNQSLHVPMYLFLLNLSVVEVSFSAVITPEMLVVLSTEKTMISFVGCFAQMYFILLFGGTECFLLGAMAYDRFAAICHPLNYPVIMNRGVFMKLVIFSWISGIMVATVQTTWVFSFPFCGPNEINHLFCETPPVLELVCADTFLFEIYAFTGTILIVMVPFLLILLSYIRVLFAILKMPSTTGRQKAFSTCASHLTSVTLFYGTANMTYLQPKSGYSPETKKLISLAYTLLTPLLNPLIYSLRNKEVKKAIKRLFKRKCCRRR
Experimental: as §1

Activated OR and OR variants [1]: No activation observed
Compound: CCC=C(C)C(=O)O [2-Methyl-2-pentenoic acid]

Activated OR and OR variants [1]: No activation observed
Compound: CC(C)CC(=O)O [3-Methylbutanoic acid]

EC20% (OR10J5): 24.4 µM
Compound: C/C(=C\CC[C@@H](C)CCO)CCC=O [(R,E)-10-hydroxy-4,8-dimethyldec-4-enal]

EC20% (OR10J5): 10.1 µM
Compound: C/C(=C\CC[C@H](C)CCO)CCC=O [(S,E)-10-hydroxy-4,8-dimethyldec-4-enal]

More lines, now with the values behind:

Compound: CCCC(C)=CC(=O)O [3-Methyl-2-hexenoic acid]
Activated OR and OR variants [1]: strong induction of the OR51B2(C120R, L134F, C209S) variant but not of the wild-type variant of OR51B2

Compound: c1ccc2scnc2c1 [Benzothiazole]
Comments on efficacy (OR4S2): 2-fold lower | Fold-improvement potency (OR4S2; changed C-term. vs wild-type): 1.3 | Fold-improvement threshold (OR4S2; changed C-term. vs wild-type): 2.4 | pEC50 (OR4S2; wild-type): 3.86

Compound: CCCCCCC1CCC(=O)O1 (centres unmarked) [Decalactone gamma]
EC2 (concentration for 2-fold luciferase induction) (OR2AP1): 33.66 µM | EC2 (concentration for 2-fold luciferase induction) (OR2J2): 3.27 µM | EC2 (concentration for 2-fold luciferase induction) (OR10J1(M51I, I92M)): 3.63 µM | EC2 (concentration for 2-fold luciferase induction) [2]: 1.62 µM | EC10, concentration for 10-fold OR activation (OR10A3): 0.84 μM
